Data published in patent publication US20230183323A1 (BROWN UNIVERSITY, priority 2020, published 2023).

Tested on: pseudovirus containing S protein mutations D614G, E484K, United Kingdom, South African, Brazilian
Format: cell-based, SARS-CoV-2

**Q.** How did the “cellular integration of Spike proteins of SARS-Cov2 (% of GFP positive cells, FACS)” value turn out when “rhCHI3L1: recombinant human CHI3L1 from a commercial source (R&D Inc.) or generated at Brown University” was run?
**A.** The value was “stimulated”.
